According to ChEMBL document CHEMBL1145039, “Synthesis and biological evaluation of thiol-based inhibitors of glutamate carboxypeptidase II: discovery of an orally active GCP II inhibitor” (J Med Chem, 2003):
Values belong to the compound of their own block, whether it stands above or below them.

Experiments:
[1] = target: T1, Glutamate carboxypeptidase 2 (Homo sapiens, UniProt Q04609);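 on IC50: inhibition of binding of tritium-labelled N-acetyl-L-aspartyl-L-glutamate to the enzyme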
Description: Inhibition of N-acetyl-L-aspartyl-[3H]L-glutamate binding to glutamate carboxypeptidase II (GCP II)

[2] = Pharmacokinetic constant Area under curve(AUC) was determined after orally administered dose of 10 mgkg in rats; format: ADME, organism-based; parameters: dose 10 mgkg, route oral; conditions: rat, in vivo, po, 10 mg/kg
[3] = Pharmacokinetic constant Area under curve(AUC) was determined after intravenously administered dose of 10 mgkg in rats; format: ADME, organism-based; parameters: dose 10 mgkg, route intravenous; conditions: rat, in vivo, iv, 10 mg/kg
[4] = Plasma concentration was determined after orally administered dose of 10 mgkg in rats; format: ADME, organism-based; parameters: dose 10 mgkg, route oral; conditions: rat, po, 10 mg/kg
[5] = Bioavailability after orally administered dose of 10 mgkg in rats; format: ADME, organism-based; conditions: rat, in vivo, po
[6] = Half life after intravenously administered dose of 10 mgkg in rats; format: ADME, organism-based; parameters: dose 10 mgkg, route intravenous; conditions: rat, in vivo, iv, 10 mg/kg
[7] = Half life after orally administered dose of 10 mgkg in rats; format: ADME, organism-based; parameters: dose 10 mgkg, route oral; conditions: rat, in vivo, po, 10 mg/kg
[8] = Pharmacokinetic constant(Tmax) after orally administered dose of 10 mgkg in rats; format: ADME, organism-based; parameters: dose 10 mgkg, route oral; conditions: rat, in vivo, po, 10 mg/kg
[9] = target: T1, Glutamate carboxypeptidase 2; remark: listed apart in the source
Description: In vitro inhibitory activity against glutamate carboxypeptidase II (GCP II) using N-acetyl-L-aspartyl-[3H]L-glutamate as a substrate

T1 sequence (Q04609 whole entry): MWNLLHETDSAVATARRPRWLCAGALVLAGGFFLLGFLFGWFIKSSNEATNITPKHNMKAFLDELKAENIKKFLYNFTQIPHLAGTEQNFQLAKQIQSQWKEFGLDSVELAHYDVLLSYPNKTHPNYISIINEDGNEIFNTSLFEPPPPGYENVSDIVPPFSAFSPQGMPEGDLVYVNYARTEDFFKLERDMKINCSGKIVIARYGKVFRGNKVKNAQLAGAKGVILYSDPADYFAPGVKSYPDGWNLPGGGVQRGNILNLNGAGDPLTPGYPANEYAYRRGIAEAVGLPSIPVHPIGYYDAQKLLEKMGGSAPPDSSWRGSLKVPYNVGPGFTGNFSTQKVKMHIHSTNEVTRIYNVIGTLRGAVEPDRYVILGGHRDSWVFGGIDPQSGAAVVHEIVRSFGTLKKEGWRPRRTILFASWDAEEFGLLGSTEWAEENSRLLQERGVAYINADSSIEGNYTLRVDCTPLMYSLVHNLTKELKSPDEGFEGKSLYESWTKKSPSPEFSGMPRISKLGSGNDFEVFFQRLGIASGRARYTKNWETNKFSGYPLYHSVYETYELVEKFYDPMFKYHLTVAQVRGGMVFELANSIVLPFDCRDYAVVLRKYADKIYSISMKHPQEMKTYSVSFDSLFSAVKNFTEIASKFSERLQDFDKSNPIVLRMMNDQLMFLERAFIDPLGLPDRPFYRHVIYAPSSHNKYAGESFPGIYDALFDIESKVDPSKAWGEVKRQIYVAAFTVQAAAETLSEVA

IC50 [1]: 580 nM
SMILES: O=C(O)CCC(CCS)C(=O)O (stereo not given)

IC50 [1]: 1400 nM
SMILES: O=C(O)CCCCS

SMILES: O=C(O)CCC(C(=O)O)P(=O)(O)O (stereo not given)
IC50 [1]: 1400 nM

AUC [2]: 1820 ng·h/mL
AUC [3]: 2550 ng·h/mL
Cmax [4]: 2230 ng/mL
bioavailability [5]: 71%
half-life [6]: 63 min
half-life [7]: 70.8 min
Tmax [8]: 9.6 min
SMILES: O=C(O)CCC(CCCS)C(=O)O (stereo not given)

IC50 [1]: 2600 nM
SMILES: O=C(O)CCC(S)C(=O)O (stereo not given)

IC50 [1]: > 10000 nM
SMILES: O=C(O)CCC(CCCSC(c1ccccc1)(c1ccccc1)c1ccccc1)C(=O)O (stereo not given)

IC50 [1]: 1200 nM
SMILES: O=C(O)CCC(CCP(=O)(O)O)C(=O)O (stereo not given)

Ki [9]: 11 nM
SMILES: O=C(O)C(CS)Cc1ccccc1 (stereo not given)

IC50 [1]: 1100 nM
SMILES: O=C(O)CCC(CCCCS)C(=O)O (stereo not given)

IC50 [1]: 6000 nM
SMILES: O=C(O)CCC(CS)C(=O)O (stereo not given)

IC50 [1]: 2600 nM
SMILES: O=C(O)CCC(CCCCCS)C(=O)O (stereo not given)

AUC [2]: 53 ng·h/mL
AUC [3]: 190 ng·h/mL
IC50 [1]: 3100 nM
Cmax [4]: 44 ng/mL
half-life [6]: 22.2 min
half-life [7]: 116 min
Tmax [8]: 54 min
SMILES: O=C(O)CCC(CCCSSCCCC(CCC(=O)O)C(=O)O)C(=O)O (stereo not given)

IC50 [1]: 6500 nM
SMILES: CSCCCC(CCC(=O)O)C(=O)O (stereo not given)
